Where two headings read alike, the source gives them in different places.
Columns and labels:
[1] = Cytotoxicity, ATP levels, normal human keratinocytes (NHK); type: cell-based; conditions: normal human keratinocytes (NHK)
Description: The viability of RDEB patient-derived cell lines or NHK was evaluated by measuring the ATP levels as an indirect readout of the potential cytotoxicity effect of compounds. Cells were plated and treated exactly with the same conditions as those followed in the AlphaLISA assay, described above. To measure ATP levels, cells were processed using the ATPlite™ 1step luminescence-based assay (PerkinElmer 6,016,731), following the manufacturer’s protocol. 25 μL of ATPlite™ reagent was added directly over cells and plates were covered with a sealing film and shaken for 25 min using a microtiter plate shaker. Luminescence was measured in a Luminoskan Ascent luminometer (Thermo Fisher Scientific). 10 μM of Staurosporine was used as a reference compound and control for the total cytotoxicity.

[2] = system: truncated and full-length C7 in RDEB_L1, RDEB_L5 and HEK293^R578X cells; assay: Western blot detection of truncated and full-length C7; type: cell-based, human
Description: For western blot, RDEB or normal human keratinocytes were lysed in protein extraction buffer (50 mM Tris–HCl [pH 7.5], 100 mM NaCl, 1% Nonidet P-40, and 4 mM EDTA) containing proteinase inhibitors cocktail (Complete Mini, EDTA free; Roche Diagnostics, Mannheim, Germany). Lysates were incubated for 30 min on ice and centrifuged at 15,000 g for 30 min at 4 °C. Supernatants were then collected and concentrated by ultrafiltration using Amicon Ultra columns (10 kDa; Millipore, Ireland). Protein concentrations were measured using the Bradford assay (Bio-Rad, Hercules, CA). For each sample, […] total protein was resolved on NuPAGE Novex 3%–8% Tris–Acetate gel electrophoresis (Invitrogen, Carlsbad, CA) and electrotransferred to nitrocellulose membranes (Invitrogen, Carlsbad, CA). For type VII collagen analysis, blots were probed with a monospecific polyclonal anti-C7 antibody (a generous gift from Dr. A. Nystrom, University of Freiburg). Invitrogen anti-MDH1 polyclonal antibody (PA550446, 1:1000) was used to detect MDH1. Standard antibodies against a reference protein were used as a loading control, as indicated. Visualization of the resulting signal was performed by incubating with horseradish peroxidase (HRP)- conjugated anti-rabbit antibody (Amersham, Burlington, MA) and West Pico Chemiluminescent Substrate (Pierce, Rockford, IL).

RDEB_L1 cells = assay: RNAseq (HTPathwaySeq) transcriptomic profiling, GSEA; type: cell-based, human; conditions: 24 h; for modulation of GO terms related to NMD, readthrough, translation and unfolded protein response: 20 ng/mL TGFβ2, compound 7 and 8 at the highest concentrations tested of 100 and 300 µM
Description: The […]®) analysis was conducted at […], Belgium) using samples provided by Almirall. A total of 376 cell lysate samples representing 4 biological replicates of 94 samples were provided to […] in four 96-well plates. On each 96-well plate, two empty wells were allocated to include […] reference samples. Samples from the same biological group were distributed over the different plates to not confound inter-plate variability with biological signal. […] The compounds were evaluated in RDEB_L1 cells in the presence of 20 ng/mL TGFβ2 to mimic RDEB physiology and in normal human keratinocytes with no TGFβ2 treatment. Cells were treated during 24 h. Controls for RDEB_L1 cells not treated with TGFβ2 and RDEB_L1 and NHK cells treated with DMSO in the absence of compounds were also included. The conditions of the assay were identical to those described for the Real-time quantitative RT-PCR (see above). For the […], over 460 M reads were generated for 376 samples of interest, resulting in about 1.22 M reads per sample on average. […] is based on a 3'-end library preparation method, and gene body read coverage is concentrated towards the 3'-end of the genes. For quality control, a selection of lysate samples was checked for gDNA contamination and RNA content using qPCR before library preparation. RNA samples were processed to generate RNA-sequencing libraries using […] procedure based on the QuantSeq (Lexogen) 3'-end library preparation workflow. The quality of a selection of samples was assessed with the 2100 Bioanalyzer instrument (Agilent). Libraries were quantified using qPCR and pooled for single-end sequencing on a NextSeq 500 (Illumina) according to […] standard operating procedure. Raw reads were mapped to the human genome (hg38) and gene expression was quantified based on the Ensembl transcriptome annotation (version 85) using […]. Raw counts were normalized using […]2 prior to differential gene expression analysis. For each cell line, samples were clustered based on log-transformed normalized counts using tSNE. A perplexity parameter of 35 and a maximum number of 1000 iterations were applied. Genes with more than 10 normalized counts in at least 3 samples were used as input. Analysis was run in R (v3.2) with a fixed seed. […] For each contrast, genes ranked by fold change were used as input. PCA was applied on the fold changes of each compound vs their associated vehicle using the 500 genes with the greatest variance. Arrows connect the different incremental dosages used on each compound to observe their differentiation patterns. Pathway enrichment and PCA were performed using R v.3.2. Pathway enrichment was analyzed with cluster profile package. The procedure followed for the cell treatments of RDEB-L1 and NHEK, was the same as that used in the RT-qPCR study. Cell lysis and sample preparation were conducted according to […] instructions: Plates of treated cells were centrifuged for 5 min at 600 g at 4 °C, and the medium was carefully removed to avoid disturbing the cells. Then, cells were washed in PBS, centrifuged and the PBS was removed again. […] After checking that cells were lysed, the samples were transferred to 96-well PCR plates, and then sealed and stored at -80 °C to be sent to […].

[3] = human, NHK cells, ATP levels, read-out: Cytotox. IC50

Compound | IC50 [1, 3] [µM] | C7 products induced, western blot ([2]; RDEB_L1 cells, 10 μM) | TGFβ signaling pathway signature (GSEA) (RDEB_L1 cells; 20 ng/mL TGFβ2, at 10 µM) | modulation of GO terms related to NMD, readthrough, translation and unfolded protein response (RDEB_L1 cells) | IC50 ([1]; read-out: cytotoxicity IC50) [µM] | C7 products induced, western blot ([2]; RDEB_L1 and HEK293^R578X cells, 50 μM compound 7, 50 μM chuangxinmycin, 100 μM 3-methyl-chuangxinmycin) | TGFβ signaling pathway signature (GSEA) (RDEB_L1 cells; 20 ng/mL TGFβ2) | concentrations showing some upregulation of truncated and full-length forms of C7 in western blot ([2]; western blot) [mM]
NC(=O)Cn1ccc2ccc(-c3cnc(N)c(C(=O)NC4C5CC6CC4CC(O)(C6)C5)n3)cc21 (centres unmarked) [Compound 1] | 19 ± 2.4 | only upregulating the truncated form of C7 | Downregulation of TGFβ signaling | Neither compound 1 nor chuangxinmycin nor 3-methyl-chuangxinmycin showed any impact on these pathways | – | – | – | –
C#Cc1cc(-c2ccncc2)c(-c2cccc(F)c2)nc1N [Compound 7] | – | – | – | modulating genes specifically related to cytoplasmic translation and the ribosome | > 100 | partially upregulated full-length C7 | did not show any effect | –
CNC(C)C1CCC(N)C(OC2C(N)CC(N)C(OC3OCC(C)(O)C(NC)C3O)C2O)O1 (centres unmarked) [Gentamicin, reference compound] | 1600 ± 280 | – | – | modulating genes related with the response to unfolded and topologically incorrect proteins | – | – | – | > 1

Reference: article PMC11329504, “Identification of novel small molecule-based strategies of COL7A1 upregulation and readthrough activity for the treatment of recessive dystrophic epidermolysis bullosa” (Scientific Reports, 2024)
